Data reported in ChEMBL document CHEMBL6153145, “Isocoumarins from Spegazzinia sp. MDCW-573 with Antibacterial and Proangiogenic Activities” (2025).
≈ marks a conversion by molar mass, not a printed value. Calls of active or inactive are those of the source. The rule behind the calls is not given here.

Tests used:
HepG2 = experiment: Cytotoxicity against human HepG2 cells; type: functional, cell-based
A549 = experiment: Cytotoxicity against human A549 cells; type: functional, cell-based
HCT-116 = experiment: Cytotoxicity against human HCT-116 cells; type: functional, cell-based
HeLa = experiment: Cytotoxicity against human HeLa cells; type: functional, cell-based
MCF7 = experiment: Cytotoxicity against human MCF7 cells; type: functional, cell-based
Staphylococcus aureus = experiment: Antibacterial activity against Staphylococcus aureus by broth microdilution method; type: functional
Escherichia coli = experiment: Antibacterial activity against Escherichia coli by broth microdilution method; type: functional
Pseudomonas aeruginosa = experiment: Antibacterial activity against Pseudomonas aeruginosa by broth microdilution method; type: functional
Danio rerio [1] = organism: Danio rerio; experiment: Induction of pro-angiogenic activity in transgenic Tg (flk1:EGFP) zebrafish model assessed as growth of intersegmental vessel at 10 uM for 24 hrs by olympus fluorescence microscopy analysis; type: functional, organism-based
Danio rerio [2] = organism: Danio rerio; experiment: Induction of pro-angiogenic activity in transgenic Tg (flk1:EGFP) zebrafish model assessed as growth of intersegmental vessel at 20 uM for 24 hrs by olympus fluorescence microscopy analysis; type: functional, organism-based
Danio rerio [3] = organism: Danio rerio; experiment: Induction of pro-angiogenic activity in transgenic Tg (flk1:EGFP) zebrafish model assessed as growth of intersegmental vessel at 40 uM for 24 hrs by olympus fluorescence microscopy analysis; type: functional, organism-based

MIC (Staphylococcus aureus)	MIC (Escherichia coli)	MIC (Pseudomonas aeruginosa)	SMILES	Activity (HepG2)	Activity (A549)	Activity (HCT-116)	Activity (HeLa)	Activity (MCF7)	Activity (Danio rerio [1])	Activity (Danio rerio [2])	Activity (Danio rerio [3])
64 µg/mL (≈ 233 µM)	64 µg/mL (≈ 233 µM)	64 µg/mL (≈ 233 µM)	COc1c(O)c(Cl)c2c(c1O)C(=O)O[C@H](C)[C@@H]2O	inactive	inactive	inactive	inactive	inactive	–	–	–
32 µg/mL (≈ 101 µM)	32 µg/mL (≈ 101 µM)	> 64 µg/mL	COc1c(O)c(Cl)c2c(c1O)C(=O)O[C@H](C)[C@H]2OC(C)=O	inactive	inactive	inactive	inactive	inactive	Active	Active	Active
64 µg/mL (≈ 252 µM)	16 µg/mL (≈ 62.9 µM)	64 µg/mL (≈ 252 µM)	COc1c(O)cc2c(c1O)C(=O)O[C@H](C)[C@H]2OC	inactive	inactive	inactive	inactive	inactive	–	–	–
64 µg/mL (≈ 252 µM)	16 µg/mL (≈ 62.9 µM)	64 µg/mL (≈ 252 µM)	COc1c(O)cc2c(c1O)C(=O)O[C@H](C)[C@@H]2OC	inactive	inactive	inactive	inactive	inactive	–	–	–
64 µg/mL (≈ 266 µM)	8 µg/mL (≈ 33.3 µM)	64 µg/mL (≈ 266 µM)	COc1c(O)cc2c(c1O)C(=O)O[C@H](C)[C@@H]2O	inactive	inactive	inactive	inactive	inactive	–	–	–
64 µg/mL (≈ 233 µM)	32 µg/mL (≈ 117 µM)	32 µg/mL (≈ 117 µM)	COc1c(O)c(Cl)c2c(c1O)C(=O)O[C@H](C)[C@H]2O	inactive	inactive	inactive	inactive	inactive	–	–	–
64 µg/mL (≈ 304 µM)	64 µg/mL (≈ 304 µM)	32 µg/mL (≈ 152 µM)	C[C@@H]1Cc2cc(O)c(O)c(O)c2C(=O)O1	inactive	inactive	inactive	inactive	inactive	–	–	–
64 µg/mL (≈ 280 µM)	32 µg/mL (≈ 140 µM)	64 µg/mL (≈ 280 µM)	C[C@H]1OC(=O)c2c(O)cc(O)cc2[C@H]1Cl	inactive	inactive	inactive	inactive	inactive	–	–	–
32 µg/mL (≈ 124 µM)	2 µg/mL (≈ 7.73 µM)	32 µg/mL (≈ 124 µM)	COc1c(O)c(Cl)c2c(c1O)C(=O)O[C@H](C)C2	inactive	inactive	inactive	inactive	inactive	–	–	–

Second part, the compound before the results:

SMILES	MIC (Staphylococcus aureus)	MIC (Escherichia coli)	MIC (Pseudomonas aeruginosa)	Activity (HepG2)	Activity (A549)	Activity (HCT-116)	Activity (HeLa)	Activity (MCF7)	Activity (Danio rerio [1])	Activity (Danio rerio [2])	Activity (Danio rerio [3])
COc1c(O)cc2c(c1O)C(=O)O[C@H](C)[C@H]2Oc1c(Cl)c2c(c(O)c1OC)C(=O)O[C@H](C)[C@@H]2O	64 µg/mL (≈ 129 µM)	4 µg/mL (≈ 8.05 µM)	64 µg/mL (≈ 129 µM)	inactive	inactive	inactive	inactive	inactive	–	–	–
O=C(O)c1cn(C2CC2)c2cc(N3CCNCC3)c(F)cc2c1=O [CIPROFLOXACIN]	0.5 µg/mL (≈ 1.51 µM)	–	4 µg/mL (≈ 12.1 µM)	–	–	–	–	–	–	–	–
COc1c(O)cc2c(c1O)C(=O)O[C@H](C)[C@@H]2Oc1cc2c(c(O)c1OC)C(=O)O[C@H](C)C2	64 µg/mL (≈ 143 µM)	1 µg/mL (≈ 2.24 µM)	32 µg/mL (≈ 71.7 µM)	inactive	inactive	inactive	inactive	inactive	–	–	–
COc1c(O)cc2c(c1O)C(=O)O[C@H](C)[C@H]2Oc1cc2c(c(O)c1OC)C(=O)O[C@H](C)[C@@H]2O	16 µg/mL (≈ 34.6 µM)	64 µg/mL (≈ 138 µM)	16 µg/mL (≈ 34.6 µM)	inactive	inactive	inactive	inactive	inactive	–	–	–
COc1c(O)cc2c(c1O)C(=O)O[C@H](C)[C@H]2Oc1c(Cl)c2c(c(O)c1OC)C(=O)O[C@H](C)[C@H]2O	64 µg/mL (≈ 129 µM)	32 µg/mL (≈ 64.4 µM)	64 µg/mL (≈ 129 µM)	inactive	inactive	inactive	inactive	inactive	Active	Active	Active
COc1c(O)cc2c(c1O)C(=O)O[C@H](C)[C@H]2Oc1c(Cl)c2c(c(O)c1OC)C(=O)O[C@H](C)C2	64 µg/mL (≈ 133 µM)	32 µg/mL (≈ 66.5 µM)	32 µg/mL (≈ 66.5 µM)	inactive	inactive	inactive	inactive	inactive	–	–	–
COc1c(O)cc2cc(C)oc(=O)c2c1O	4 µg/mL (≈ 18 µM)	16 µg/mL (≈ 72 µM)	32 µg/mL (≈ 144 µM)	inactive	inactive	inactive	inactive	inactive	–	–	–
COc1c(O)cc2c(c1O)C(=O)O[C@H](C)[C@@H]2Oc1c(Cl)c2c(c(O)c1OC)C(=O)O[C@H](C)[C@H]2O	64 µg/mL (≈ 129 µM)	32 µg/mL (≈ 64.4 µM)	32 µg/mL (≈ 64.4 µM)	inactive	inactive	inactive	inactive	inactive	Active	Active	Active
COc1c(O)cc2c(c1O)C(=O)O[C@H](C)[C@H]2Oc1cc2c(c(O)c1OC)C(=O)O[C@H](C)C2	2 µg/mL (≈ 4.48 µM)	1 µg/mL (≈ 2.24 µM)	32 µg/mL (≈ 71.7 µM)	inactive	inactive	inactive	inactive	inactive	–	–	–
COc1c(O)cc2c(c1O)C(=O)O[C@H](C)[C@@H]2Oc1c(Cl)c2c(c(O)c1OC)C(=O)O[C@H](C)[C@@H]2O	64 µg/mL (≈ 129 µM)	8 µg/mL (≈ 16.1 µM)	64 µg/mL (≈ 129 µM)	inactive	inactive	inactive	inactive	inactive	–	–	–
CCO[C@H]1c2cc(O)c(OC)c(O)c2C(=O)O[C@@H]1C	–	–	–	inactive	inactive	inactive	inactive	inactive	–	–	–
COc1c(O)cc2c(c1O)C(=O)O[C@H](C)[C@@H]2Oc1c(Cl)c2c(c(O)c1OC)C(=O)O[C@H](C)C2	64 µg/mL (≈ 133 µM)	64 µg/mL (≈ 133 µM)	32 µg/mL (≈ 66.5 µM)	inactive	inactive	inactive	inactive	inactive	–	–	–
